Experimental data taken from paper PMC11574045, “A cofactor-induced repressive type of transcription factor condensation can be induced by synthetic peptides to suppress tumorigenesis” (The EMBO Journal, 2024).
Several values for one entry are separate records, joined by “and”; a condition that tells them apart may be missing. Equal entries are not always repeated. Ends that are not written are not given here.

Tests used:
TEAD4 = target: T1, TEAD4 (Homo sapiens, UniProt Q15561); assay: FRAP of TEAD4 droplets formed from purified protein; format: biochemical; details: purified TEAD4 protein treated with FAM-GLUP
T1 construct: His; made in house; host or cells: Escherichia coli BL21(DE3)
T1 sequence (Q15561 whole entry): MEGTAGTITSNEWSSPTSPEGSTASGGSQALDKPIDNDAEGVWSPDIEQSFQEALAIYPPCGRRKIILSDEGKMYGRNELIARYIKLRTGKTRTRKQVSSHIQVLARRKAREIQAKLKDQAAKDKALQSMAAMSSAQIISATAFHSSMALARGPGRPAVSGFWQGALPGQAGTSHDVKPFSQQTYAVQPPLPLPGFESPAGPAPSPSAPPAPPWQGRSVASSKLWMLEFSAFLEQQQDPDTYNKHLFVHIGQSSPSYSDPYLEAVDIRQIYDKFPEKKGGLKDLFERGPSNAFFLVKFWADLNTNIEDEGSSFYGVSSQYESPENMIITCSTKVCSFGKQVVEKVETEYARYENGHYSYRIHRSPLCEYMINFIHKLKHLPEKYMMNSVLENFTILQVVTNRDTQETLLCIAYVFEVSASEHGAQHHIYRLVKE
Description: (A) Schematic of the strategy of the initial version of a linker peptide termed “glup”. […] The two TEAD4 molecules are colored cyan and blue, respectively. […] Monomer, dimer, and oligomer TEAD4 bands are labeled. (D) Schematic illustration of an optimized version of the linker peptide (referred to as GLUP). […] (F) Comparison of glup with GLUP. MW, molecular weight. […] The quantification graph represents the data collected from 10 images (n = 10). Data shown as means ± SD represent the representative results from two independent experiments. Significance was tested using one-way ANOVA, followed by the Tukey’s post-hoc test. *p < 0.05; ****p < 0.0001. NaCl (+), 20 mM; NaCl (++), 150 mM; NaCl (+++), 500 mM. Scale bar, 10 μm. […] For each photobleached spot, the fluorescence recovery curve was traced. The graph represents the data collected from 5 droplets (n = 5). t1/2: fluorescence recovery time; Rf: mobile fraction. […] The quantification graph represents the data collected from 9 cells (n = 9). […] The data were analyzed using one-way ANOVA, followed by the Tukey’s post-hoc test. n.s., no significance; ****p < 0.0001. […] Three images were gradually taken during pre-bleach, bleaching pulses, followed by fluorescence recovery as indicated on the graph (left). […] White circles indicated the bleaching condensates. t1/2: fluorescence recovery time; Rf: mobile fraction. […]

AGS cells = format: cell-based, human; details: 48 h
Procedure: (§1) For cell viability assays, cells were seeded into 96-well plates overnight to attach them to the plates, and then treated with GLUP for 48 h. Cells incubated for indicated periods of time were analyzed using an ATP-based CellTiter-Lumi^TM Plus kit (Beyotime) according to the manufacturer’s instructions. The intracellular ATP contents were measured using a BioTek Synergy^TM NEO multi-detector microplate reader (Thermo). Cell viability was calculated using the equation cell viability (%) = [[value (test) − value (blank)] × [value (control) − value (blank)]] −1 × 100.

AZ-521 cells = format: cell-based, human; details: 48 h
Procedure: as §1

BGC-823 cells = format: cell-based, human; details: 48 h
Procedure: as §1

GES-1 cells = format: cell-based, human; details: 48 h
Procedure: as §1

HGC-27 cells = format: cell-based, human
Procedure: as §1

MGC-803 cells = format: cell-based, human; details: 48 h
Procedure: as §1

MKN-45 cells = format: cell-based, human; details: 48 h
Procedure: as §1

SH-10-TC cells = format: cell-based, human; details: 48 h
Procedure: as §1

Pharmacokinetics assay = format: in vivo, mouse; details: 10 mg/kg
Procedure: Blood samples were obtained at 0, 0.17, 0.33, 0.5, 0.67, 0.83, 1, 2, 4, 6, 8, 10, 12, and 24 h after intraperitoneally injected administration of FAM-GLUP. These blood samples were then allowed to coagulate at room temperature for 4 h, and then were subjected to centrifugation at 3000 × g at 4 °C for 10 min in order to separate the plasma. The plasma samples were analyzed using an Ultra Performance Liquid Chromatography system (UPLC, Waters, Milford, MA). Pharmacokinetic parameters were calculated using Phoenix^TM WinNonlin® software (version 6.1.0.173; Pharsight Corp., Mountain View, CA).

MNU-induced GC tumors = assay: MNU-induced gastric cancer mouse model; format: in vivo; design: Tumor area, GLUP+ / Tumor area, GLUP++: unit not given here
Procedure: For the model involving N-nitroso-N-methylurea (MNU)-induced GC, 8-week-old C57BL/6 mice received 3 cycles of MNU (TRC, Toronto, Canada) in drinking water. For each cycle, drinking water containing 240 μg/ml MNU was served to the mice for 1 week, and then normal drinking water the next week. After 19 weeks of MNU administration, mice were randomized to receive GLUP via intraperitoneal injection (i.p.) biweekly for the following 5 weeks (n = 8/group). After 24 weeks, mice were sacrificed for subsequent analysis. The tumor volume per stomach was measured.

[1] = test system: WT or TEAD4KO HGC-27 cells; assay: Cut&Tag; format: cell-based, human; details: GLUP 10 μg/ml (5 μM)
chromatin = assay: N-SIM imaging of DAPI-labeled chromatin in cells; format: cell-based; details: GLUP 1 μg/ml (0.5 μM)
Description: Next, we used structure illumination microscopy (N-SIM) to examine deformation of DAPI-labeled chromatin in cells overexpressing VGLL4. […] To further address this issue, we performed colloidal gold staining using TEAD4 antibody to observe the status of chromatin around TEAD4.
To confirm cellular entry of GLUP, we performed immunostaining of live cells treated with a fluorescein-labeled version of the peptide (FAM-GLUP). […] We then examined the potential effect of GLUP on TEAD4-mediated perturbation of DNA conformation.

In the case of “RRVCVHFHFSLSLR-NH2 (C-terminus assumed) [glup]”, the “mobile fraction (FRAP)” value (TEAD4) is reported as “about 86%”, the IC50 (AGS cells) is reported as 34 µg/mL and the IC50 (AZ-521 cells) is reported as 8.1 µg/mL. For the same substance, the IC50 (BGC-823 cells) was 26.1 µg/mL, the IC50 (GES-1 cells) was 13.1 µg/mL and the Cell death (HGC-27 cells; HGC-27, 0.1 µg/ml GLUP, 48 h (peer review file, Figure R22C)) was roughly 60%. For the same substance, the “Suppression of cell growth with or without YAP (5SA) overexpression” value (HGC-27 cells; HGC-27, 0.1/1 µg/ml GLUP (peer review file, Figure R23)) was “regardless of YAP (5SA) expression”, the IC50 (MGC-803 cells) was 2.5 µg/mL and the IC50 (MKN-45 cells) was 7.3 µg/mL. For the same substance, the IC50 (SH-10-TC cells) was 26.3 µg/mL, the half-life (Pharmacokinetics assay; mouse peripheral blood/plasma, FAM-GLUP intraperitoneal, sampling 0–24 h, UPLC, WinNonlin) was “over 4 h” and the “plasma levels of GLUP, max” value (Pharmacokinetics assay; mouse, as read by Referee #1 from Supp. Fig. 6K of the submitted version) was “around 0.15 µg/ml”. The “Average tumor area vs control” value (MNU-induced GC tumors; MNU-induced GC mice, 5-week GLUP treatment) was “much smaller than that in control mice”, the Gastric mucosa histology (MNU-induced GC tumors; MNU-induced GC mice, high dose GLUP 5 mg/kg) was “almost normal gastric mucosa” and the “Tumor area, GLUP+” value (MNU-induced GC tumors; MNU-induced GC, C57BL/6 mice, 1 mg/kg GLUP biweekly for 5 weeks, individual mice (source data Fig 7B), 1 mg/kg) was 28.125 and 40.5 and 20.5 and 4.5 and 6.5 and 16.2. The “Tumor area, GLUP++” value (MNU-induced GC tumors; MNU-induced GC, C57BL/6 mice, 5 mg/kg GLUP biweekly for 5 weeks, individual mice (source data Fig 7B), 5 mg/kg) was 4.5 and 2.5315 and 0.5 and 0, the “H3K27me3 signals at 3 kb regions flanking TSS” value ([1]; TEAD4-depleted HGC-27 cells) was “no such effect was detected” and the “H3K27me3 signals at 3 kb regions flanking TSS” value ([1]; WT HGC-27 cells) was “dramatically strengthened the signals of H3K27me3”. For the same substance, the “Effect on chromatin distribution” value (chromatin) was “substantially disturbed chromatin distribution and organization”.
